From patent US20240115654A1, “INTRAVENOUS ADMINISTRATION OF ENGINEERED ANTIMICROBIAL AMPHIPHILIC PEPTIDES” (priority 2021, published 2024)
“And” between values parts separate entries of the source, which are not always exact repeats. Equal entries are not always repeated. Where two headings read alike, the source gives them in different places. Peptide text beside a SMILES is read from it.

[1] = Cohort 1, 0.05 mg/kg IV infusion, Geometric Mean
[2] = Cohort 1, 0.05 mg/kg IV infusion, Max
[3] = Cohort 1, 0.05 mg/kg IV infusion, Mean
[4] = Cohort 1, 0.05 mg/kg IV infusion, Median
[5] = Cohort 1, 0.05 mg/kg IV infusion, Min
[6] = Cohort 1, 0.05 mg/kg IV infusion, cohort Geometric Mean
[7] = Cohort 1, 0.05 mg/kg IV infusion, cohort Mean
[8] = Cohort 1, 0.05 mg/kg IV infusion, cohort Median
[9] = Cohort 1, 0.05 mg/kg IV infusion, individual subject
[10] = Cohort 1, 0.05 mg/kg IV infusion, individual subjects
[11] = Cohort 3b and 4 section: over the 10-fold increase in dose
[12] = Cohort 3b and 4 section: over the […] increase in dose
[13] = Cohort 3b, […] IV infusion 2 hours, Max
[14] = Cohort 3b, […] IV infusion 2 hours, Min
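Note: phase 1 study in human subjects given one IV dose of the peptide, enrolled in sequential ascending-dose cohorts and randomized to peptide or placebo.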

Procedure: Administration was a single 1-hour infusion.
Subjects were enrolled in sequential cohorts of peptide ascending dose levels and randomly assigned to receive a single IV administration of either peptide or placebo over 1 to 2 hours. […] In addition, the infusion volume was adjusted for Cohort 4 to maintain drug concentrations in line with Cohort 2
Blood samples for PK assessment were collected at pre-dose, at the midpoint of infusion, within 1 minute after the end-of-infusion and at 0.5, 1, 2, 4, 6, 8, 12, 20, 24, 36 and 48 hours after the end-of-infusion.
The pharmaceutical composition was stored at 2° C. to 8° C. for up to 14 days and then 15° C. to 25° C. for up to 48 hours for dosing.
Subjects were enrolled in sequential cohorts of peptide ascending dose levels and randomly assigned to receive a single IV administration of either peptide or placebo over 1 to 2 hours.

For CC(C)[C@H](NC(=O)[C@H](Cc1c[nH]c2ccccc12)NC(=O)[C@H](CCCNC(=N)N)NC(=O)[C@H](CCCNC(=N)N)NC(=O)[C@@H](NC(=O)[C@@H](NC(=O)[C@H](CCCNC(=N)N)NC(=O)[C@@H](NC(=O)[C@@H](NC(=O)[C@H](CCCNC(=N)N)NC(=O)[C@H](CCCNC(=N)N)NC(=O)[C@H](Cc1c[nH]c2ccccc12)NC(=O)[C@@H](NC(=O)[C@H](CCCNC(=N)N)NC(=O)[C@H](CCCNC(=N)N)NC(=O)[C@@H](NC(=O)[C@H](CCCNC(=N)N)NC(=O)[C@H](CCCNC(=N)N)NC(=O)[C@@H](NC(=O)[C@H](Cc1c[nH]c2ccccc12)NC(=O)[C@H](CCCNC(=N)N)NC(=O)[C@@H](N)CCCNC(=N)N)C(C)C)C(C)C)C(C)C)C(C)C)C(C)C)C(C)C)C(C)C)C(=O)N[C@@H](CCCNC(=N)N)C(=O)N[C@@H](CCCNC(=N)N)C(N)=O [SEQ ID NO: 1] (H-RRWVRRVRRVWRRVVRVVRRWVRR-NH2), the “Plasma Concentration by Nominal Time from Start of Infusion, Mean” value (“Plasma Concentration by Nominal Time … Mean” below) (Cohort 1, 0.05 mg/kg IV 1-hr infusion, 49 h, cohort mean) was 0.00 ng/mL, the “Plasma Concentration by Nominal Time from Start of Infusion” value (Cohort 1, 0.05 mg/kg IV 1 hr infusion, 0.0 h, individual subjects) was 0.00 ng/mL and the “Plasma Concentration by Nominal Time from Start of Infusion” value (Cohort 1, 0.05 mg/kg IV 1 hr infusion, 9.0 h, individual subjects) was 63.2 ng/mL. For the same molecule, the “Plasma Concentration by Nominal Time from Start of Infusion” value (Cohort 1, 0.05 mg/kg IV 1 hr infusion, 13 h, individual subjects) was 32.9 ng/mL, the “Plasma Concentration by Nominal Time from Start of Infusion” value (Cohort 1, 0.05 mg/kg IV 1 hr infusion, 21 h, individual subjects) was 0.00 ng/mL and the “Plasma Concentration by Nominal Time from Start of Infusion” value (Cohort 1, 0.05 mg/kg IV 1 hr infusion, 25 h, individual subjects) was 0.00 ng/mL. The “Plasma Concentration by Nominal Time from Start of Infusion” value (Cohort 1, 0.05 mg/kg IV 1 hr infusion, 37 h, individual subjects) was 0.00 ng/mL, the “Plasma Concentration by Nominal Time … Mean” value (Cohort 1, 0.05 mg/kg IV 1 hr infusion, 49 h, cohort mean N 6) was 0.00 ng/mL and the “Plasma Concentration by Nominal Time from Start of Infusion” value (Cohort 1, 0.05 mg/kg IV 1 hr infusion, 49 h, individual subjects) was 0.00 ng/mL. For the same molecule, the AUCextrap [1] was 8.36%, the CL/F [1] was 0.522 mL/min/kg and the Tlast [1] was 24 h. The λz [1] was 0.0946 h⁻¹, the AUC0-24 [2] was 1610 ng·h/mL and the AUC(0-inf) [2] was 1820 ng·h/mL. It also gave an AUC(0-t) [2] of 1720 ng·h/mL, an AUCextrap [2] of 12.1% and a CL/F [2] of 0.595 mL/min/kg. The Cmax [2] was 341 ng/mL, the Tlast [2] was 37 h and the t1/2 [2] was 8.59 h. It also gave a λz [2] of 0.105 h⁻¹, an AUCextrap [3] of 8.87% and a CL/F [3] of 0.525 mL/min/kg. For the same molecule, the Tlast [3] was 25 h, the λz [3] was 0.0950 h⁻¹ and the AUCextrap [4] was 8.12%. It also gave a Tlast [4] of 25 h, a λz [4] of 0.0951 h⁻¹ and an AUC0-24 [5] of 619 ng·h/mL. The AUC(0-t) [5] was 515 ng·h/mL, the AUCextrap [5] was 4.54% and the CL/F [5] was 0.457 mL/min/kg. For the same molecule, the Cmax [5] was 170 ng/mL, the Tlast [5] was 13 h and the t1/2 [5] was 6.62 h. It also gave a λz [5] of 0.0807 h⁻¹, an AUCextrap [6] of 8.36% and a CL/F [6] of 0.522 mL/min/kg. For the same molecule, the Tlast [6] was 24 h, the λz [6] was 0.0946 h⁻¹ and the AUCextrap [7] was 8.87%. It also gave a CL/F [7] of 0.525 mL/min/kg, a Tlast [7] of 25 h and a λz [7] of 0.0950 h⁻¹. It also gave an AUCextrap [8] of 8.12%, a Tlast [8] of 25 h and a λz [8] of 0.0951 h⁻¹. For the same molecule, the AUC(0-inf) [9] was 1490 ng·h/mL and 1800 ng·h/mL and 1820 ng·h/mL, the CL/F [9] was 0.595 mL/min/kg and 0.562 mL/min/kg and the AUC(0-inf) [10] was 1490 ng·h/mL and 1800 ng·h/mL and 1820 ng·h/mL. For the same molecule, the Tlast [10] was 25 h (4×) and 13 h and 37 h, the CL/F (Cohort 2, […] IV infusion, Max) was 1.44 mL/min/kg and the t1/2 (Cohort 2, […] IV infusion, Max) was 15.5 h. The CL/F (Cohort 2, […] IV infusion, Mean) was 0.878 mL/min/kg, the CL/F (Cohort 2, […] IV infusion, Median) was 0.82 mL/min/kg and the CL/F (Cohort 2, […] IV infusion, Min) was 0.322 mL/min/kg. It also gave a t1/2 (Cohort 2, […] IV infusion, Min) of 7.51 h, a CL/F (Cohort 2, […] IV infusion, cohort Mean) of 0.878 mL/min/kg and a CL/F (Cohort 2, […] IV infusion, cohort Median) of 0.82 mL/min/kg. It also gave a CL/F (Cohort 3, […] IV infusion, Geometric Mean) of 0.91 mL/min/kg, a CL/F (Cohort 3, […] IV infusion, Max) of 4.3 mL/min/kg and a t1/2 (Cohort 3, […] IV infusion, Max) of 21.8 h. The CL/F (Cohort 3, […] IV infusion, Mean) was 1.4 mL/min/kg, the CL/F (Cohort 3, […] IV infusion, Min) was 0.295 mL/min/kg and the t1/2 (Cohort 3, […] IV infusion, Min) was 5.80 h. The CL/F (Cohort 3, […] IV infusion, cohort Geometric Mean) was 0.91 mL/min/kg, the CL/F (Cohort 3, […] IV infusion, cohort Mean) was 1.4 mL/min/kg and the “increase of AUC0-t” value [11] was 6.4 fold. The “increase of mean AUC0-24” value [11] was 5.8 fold, the “increase of mean Cmax” value [11] was 7.1 fold and the “increase of AUC0-t” value [12] was 4.2 fold. For the same molecule, the “increase of mean AUC0-24” value [12] was 3.7 fold, the “increase of mean Cmax” value [12] was 3.7 fold and the CL/F (Cohort 3b, […] IV infusion 2 hours, Geometric Mean) was 0.748 mL/min/kg. It also gave a CL/F [13] of 1.36 mL/min/kg, a t1/2 [13] of 17.5 h and a CL/F (Cohort 3b, […] IV infusion 2 hours, Mean) of 0.795 mL/min/kg. For the same molecule, the CL/F (Cohort 3b, […] IV infusion 2 hours, Median) was 0.76 mL/min/kg, the CL/F [14] was 0.415 mL/min/kg and the t1/2 [14] was 9.72 h. The CL/F (Cohort 3b, […] IV, infusion 2 hours, cohort Geometric Mean) was 0.748 mL/min/kg, the CL/F (Cohort 3b, […] IV, infusion 2 hours, cohort Mean) was 0.795 mL/min/kg and the CL/F (Cohort 3b, […] IV, infusion 2 hours, cohort Median) was 0.76 mL/min/kg. The “Plasma Concentration by Nominal Time … Mean” value (Cohort 4, 0.5 mg/kg IV 2-hr infusion, 0.0 h, cohort mean) was 0.00 ng/mL, the AUCextrap (Cohort 4, 0.5 mg/kg IV infusion 2 hours, Geometric Mean) was 7.38% and the AUC0-24 (Cohort 4, 0.5 mg/kg IV infusion 2 hours, Max) was 10400 ng·h/mL.
